Tests used:
[1] = system: CBD isolate nanoemulsion; assay: Sensory evaluation: bitterness reduction of CBD isolate; format: in vivo; details: dosage 50 or 100 ppm per sample
Description: The bitterness blocker candidates listed in Table 1 were prepared into a 1% sample solution with propylene glycol and heated to ensure complete solubilization. […] A CBD isolate was emulsified into a water-soluble nanoemulsion first, to which was added the respective sample solution. […] A trained sensory evaluator was asked to estimate the perceived bitterness reduction against the control, as well as to provide comments on how the addition of the individual sample solution modulated the taste and mouth feel profile of the resulting nanoemulsion.

[2] = system: cough syrup DELSYM (dextromethorphan HBr); assay: Sensory evaluation: bitterness reduction of cough syrup DELSYM; format: in vivo; details: dosage 50 or 100 ppm per sample
Description: The bitterness blocker candidates listed in Table 1 were prepared into a 1% sample solution with propylene glycol and heated to ensure complete solubilization. […] Individually, the respective sample solution was added to a cough syrup sold under the trade name DELSYM®. The bitter-tasting agent contained in the cough syrup were dextromethorphan HBr USP 30 mg (as measured for each 5 ml teaspoon, i.e., 6000 mg/l of dextromethorphan). A trained sensory evaluator was asked to estimate the perceived bitterness reduction against the control, as well as to provide comments on how the addition of the individual sample solution modulated the taste and mouth feel profile of the resulting cough syrup.

[3] = system: caffeine in water; assay: Two-alternative forced choice (2AFC) difference test; format: in vivo
Description: The bitter blocker candidates BB09, BB11, and BB13 were subject to a two-alternative forced choice (2AFC) difference test wherein panelists were presented Control Caffeine solutions and Test solutions containing caffeine and one of three bitterness blocker candidates (BB09, BB 11, or BB13). Panelists were asked to evaluate the two samples and answer the question, “which one is more hitter?”
BB09 and BB11 were tested first. Three ounces of control (caffeine in water), BB09 in caffeine water, and BB11 in caffeine water were presented at room temperature in separate plastic souffle cups labeled with 3-digit codes. Ten sensory trained panelists evaluated each sample in three repetitions with a 10 minute break between repetitions. Panelists then completed the 2AFC. Data was collected on EveQuestion and analyzed on XLSTAT. Testing was conducted at Sensations Research according to FEMA guidelines.
BB13 was tested separately. Two ounces of control (caffeine in water), BB13 in caffeine water were presented at room temperature in separate plastic souffle cups labeled with 3-digit codes. Fifteen participants evaluated each sample in two repetitions with a 10 minute break between repetitions for a total of thirty evaluations as per the FEMA guidelines. Panelists then completed the 2AFC to identify the more bitter sample. Data was collected and analyzed on Compusense.

[4] = system: melted dark chocolate pieces with 100% dark cacao; assay: Sensory evaluation: bitterness reduction of dark chocolate pieces; format: in vivo; details: dosage 50 or 100 ppm per sample
Description: The bitterness blocker candidates listed in Table 1 were prepared into a 1% sample solution with propylene glycol and heated to ensure complete solubilization. […] Individually, the respective sample solution was added to melted dark chocolate pieces with 100% dark cacao. A trained sensory evaluator was asked to estimate the perceived bitterness reduction against the control, as well as to provide comments on how the addition of the individual sample solution modulated the taste and mouth feel profile of the resulting melted dark chocolate pieces.

[5] = system: THC nanoemulsion; assay: Sensory evaluation: bitterness reduction of THC; format: in vivo; details: dosage 50 or 100 ppm per sample
Description: The bitterness blocker candidates listed in Table 1 were prepared into a 1% sample solution with propylene glycol and heated to ensure complete solubilization. […] THC was first emulsified into a water-soluble nanoemulsion (10 mg THC per serving), to which was added the respective sample solution. A trained sensory evaluator was asked to estimate the perceived bitterness reduction against the control, as well as to provide comments on how the addition of the individual sample solution modulated the taste and mouth feel profile of the resulting nanoemulsion.

[6] = system: dark roast coffee; assay: Sensory evaluation: bitterness reduction of dark roast coffee; format: in vivo; details: dosage 50 or 100 ppm per sample
Description: (§1) The bitterness blocker candidates listed in Table 1 were prepared into a 1% sample solution with propylene glycol and heated to ensure complete solubilization. […] A trained sensory evaluator was asked to estimate the perceived bitterness reduction against the control, as well as to provide comments on how the addition of the individual sample solution modulated the taste and mouth feel profile of the resulting dark roast coffee.

[7] = system: bitter-responsive human taste bud tissue-derived cells (hTBEC); assay: ATP secretion detection assay (luminescence); format: cell-based
Description: The bitter blocker candidates were further characterized using bitter-responsive human taste bud tissue-derived cells (hTBEC) platforms and bioassays. Bitter-responsive hTBECs were treated with hitter blocker candidates and various bitter agonists to assess the efficacy of each bitter blocker candidate in reducing the bitterness of each of the various bitter agonists.
One industry standard bitter agonist was used as a control (L-Praziquantel), and five bitter blocker controls were used (Senomyx BB68, STX-001, sodium gluconate, eridictyol, and homoeridictyol).
BB09, BB11, and BB13 were first tested at various concentrations in combination with 100 μM Dextromethorphan-HBr.
Next, bitter blocker concentration ranges were narrowed (100 μM-1,000 μM) and compared to a fixed concentration of stimulus. […] BB13 was evaluated further by real time ATP secretion detection in pooled hTBEC 66 cells treated with 300 μM Theobromine.
Each culture was treated with BB09, BB11, BB13, STX001, or Senomyx BB68, as well as either Dextromethorphan-HBr at 1000 μM (FIGS. 18A-18C), Theobromine at 1,000 μM (FIGS. 19A-19C), Rebaudioside A at 1 mM (FIGS. 20A-20C), or Caffeine at 3 mM (FIGS. 21A-21C).

[8] = system: peach-flavored energy drink (caffeine, B vitamins); assay: Sensory evaluation: bitterness reduction of a peach-flavored energy drink; format: in vivo; details: caffeine about 710 mg/l, dosage (ppm) per sample (20 to 50-100 ppm)
Description: as §1, with “peach-flavored energy drink.” for “dark roast coffee.”

[9] = system: 0.25% caffeine solution; assay: Sensory evaluation: bitterness reduction of a caffeine solution; format: in vivo; details: one trained sensory evaluator, vs control, dosage (ppm) per sample (20 to 50-100 ppm)
Description: as §1, with “The bitter” for “The bitterness”, “glycol (i.e., 1 g of bitter blocker per 100 ml of propylene glycol)” for “glycol”, “resulting caffeine solution.” for “resulting dark roast coffee.”

COc1cc([C@@H]2CC(=O)c3c(O)cc(O)cc3O2)ccc1O[C@@H]1O[C@H](CO)[C@@H](O)[C@H](O)[C@H]1O [BB11, Homoeriodictyol 4′-O-glucoside]
Comments [1]: Nice upfront bitterness reduction
Estimated % bitterness reduction [1]: 60%
Estimated % bitterness reduction ([2]; 6000 mg/l of dextromethorphan): 60%
Comments [2]: Less bitter, smoother, more
Significant? ([3]; 2AFC, 90% confidence level, which sample is more bitter): Yes,
# Selected Variant (which is more bitter?) ([3]; of 30 responses (10 panelists, 3 evaluations), control caffeine in water vs variant in caffeine water): 10
Comments [4]: Good bitterness reduction but
Estimated % bitterness reduction [4]: 60%
Estimated % bitterness reduction ([5]; THC nanoemulsion (10 mg THC per serving)): 60%
Comments ([5]; THC nanoemulsion): Nice upfront bitterness reduction
Estimated % bitterness reduction ([6]; caffeine about 740 mg/l): 80%
Comments [6]: Nice upfront bitterness reduction
inhibition of luminescence activity of Dextromethorphan-HBr (ATP secretion) ([7]; 100 μM Dextromethorphan-HBr, various blocker concentrations (FIG. 12)): able to inhibit
inhibition of the L-Praziquantel response (ATP secretion) ([7]; 400 μM L-Praziquantel, pooled donor-derived hTBEC (FIG. 13)): showed inhibition
inhibition of the bitter agonists (ATP secretion) ([7]; hTBEC 66, hTBEC 56, hTBEC Donor H, Dextromethorphan-HBr at 1000 μM, Theobromine 1,000 μM, Rebaudioside A 1 mM or Caffeine 3 mM (FIGS. 18-21)): trends of inhibition in most cases
Estimated % bitterness reduction [8]: 80%
Estimated % bitterness reduction [9]: 60-80% ^

— patent publication US20230270148A1, “BITTER BLOCKERS AND RELATED METHODS OF USE” (Conagen Inc., priority 2020, published 2023)
